Reference: patent US20240285572A1 (priority 2023, published 2024)

Experiments:
retinal blood flow = settings: oral; glaucoma patients and diabetics; Zurakowski 1998, Weigert 2008; cited from earlier work
[1] = system: acute central retinal artery occlusion; settings: sublingual route; cited from earlier work
[2] = system: human patients having central serous chorioretinopathy (CSCR); assay: Central macular thickness by OCT in CSCR patients given isosorbide dinitrate; assay type: in vivo
Method: The nitric-oxide releasing agent isosorbide dinitrate was given orally at 5 mg twice per day dosage for sublingual administration for 7 days for 7 human patients (CL, WZ, XC, LL, BZ, XZ, and LS) having central serous chorioretinopathy (CSCR). Average age of the patients is 41.6 years. 5 men and 2 women were enrolled in this study.

| SMILES | Retinal blood flow (retinal blood flow) | Treatment outcome in acute central retinal artery occlusion [1] | Central macular OCT thickness, overall change ([2]; 7 human CSCR patients, 5 mg twice per day sublingual for 7 days, 7-10 days after treatment) | Subretinal fluid status after treatment ([2]; patient, eye OD) |
| --- | --- | --- | --- | --- |
| O=[N+]([O-])OCC(CO[N+](=O)[O-])O[N+](=O)[O-] [nitroglycerin, 1,2,3-Tris(nitrooxy)propane] | retinal blood flow improves | variable success | – | – |
| O=[N+]([O-])O[C@H]1CO[C@H]2[C@@H]1OC[C@H]2O[N+](=O)[O-] [isosorbide dinitrate, 1,4:3,6-dianhydro-2,5-di-O-nitro-D-glucitol] | – | – | generalized decrease | fluid resolved) |
